For one data set, the system named is HepG2 cells. The data set is described as follows: EdU incorporation in HepG2 cells. Type of data set: cell-based. Particulars: 10 µM BfC versus untreated. The source says:
Supplementary Figure S2. Redocking of harmine in DYRK1A. The interactions between the compounds and the kinase hinge are identical (red circles) in both calculated and experimental model. […]
compounds are shown as cartoon, with blue for nitrogen atoms, white for hydrogen, red for oxygen, purple for iodine and either orange (experimental) or green (docked) for carbon atoms. The protein active site is shown as a grey surface and important residues are shown as wire, dashed line represent […]
µM). Open bars: EdU negative cells. Closed bars: EdU positive cells. Closed circles: Untreated cells. […]

The target in another data set is T1, DYRK3 (Homo sapiens, UniProt O43781).
T1 sequence (O43781 1-588): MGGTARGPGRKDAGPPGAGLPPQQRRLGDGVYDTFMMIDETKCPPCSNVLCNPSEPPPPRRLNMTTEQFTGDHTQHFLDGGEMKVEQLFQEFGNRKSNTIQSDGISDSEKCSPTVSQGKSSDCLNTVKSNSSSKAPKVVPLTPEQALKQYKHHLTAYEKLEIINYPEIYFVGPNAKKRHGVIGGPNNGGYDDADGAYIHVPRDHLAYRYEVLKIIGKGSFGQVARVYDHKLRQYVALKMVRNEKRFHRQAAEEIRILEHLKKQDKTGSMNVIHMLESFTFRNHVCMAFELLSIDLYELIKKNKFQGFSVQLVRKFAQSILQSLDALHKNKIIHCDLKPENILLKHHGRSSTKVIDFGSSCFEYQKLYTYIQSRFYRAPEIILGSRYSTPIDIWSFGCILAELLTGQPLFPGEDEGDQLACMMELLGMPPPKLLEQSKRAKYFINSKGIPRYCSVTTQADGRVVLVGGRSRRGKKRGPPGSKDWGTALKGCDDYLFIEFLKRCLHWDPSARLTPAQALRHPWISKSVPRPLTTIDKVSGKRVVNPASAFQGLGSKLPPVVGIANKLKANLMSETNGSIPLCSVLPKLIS
Description: Kinase activity assay (33P-ATP radioactive filter binding). Type of data set: biochemical. The following applies: duplicate 10-point concentration curve, mean ± SD. As to the method:
(§1) Each kinase was assayed using a duplicate 10-point concentration curve.

In another data set the target is T2, DYRK2 (Homo sapiens, UniProt Q92630).
T2 sequence (Q92630 1-601): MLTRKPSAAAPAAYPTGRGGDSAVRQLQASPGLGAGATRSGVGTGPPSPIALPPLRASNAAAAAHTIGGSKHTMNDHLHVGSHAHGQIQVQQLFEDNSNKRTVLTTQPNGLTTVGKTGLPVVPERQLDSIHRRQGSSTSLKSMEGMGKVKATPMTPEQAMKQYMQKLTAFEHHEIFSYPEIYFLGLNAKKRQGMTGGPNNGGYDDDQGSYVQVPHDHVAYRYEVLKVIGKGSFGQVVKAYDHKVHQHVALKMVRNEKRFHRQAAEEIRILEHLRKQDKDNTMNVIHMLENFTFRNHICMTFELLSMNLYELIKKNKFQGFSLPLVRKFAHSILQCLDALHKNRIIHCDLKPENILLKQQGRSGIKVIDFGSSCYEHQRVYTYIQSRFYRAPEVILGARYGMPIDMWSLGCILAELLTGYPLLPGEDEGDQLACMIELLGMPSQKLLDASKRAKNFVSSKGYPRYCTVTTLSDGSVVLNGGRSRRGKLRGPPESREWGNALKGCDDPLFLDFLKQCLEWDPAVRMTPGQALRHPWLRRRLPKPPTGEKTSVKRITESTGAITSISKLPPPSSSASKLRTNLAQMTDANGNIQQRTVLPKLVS
Described as above. The data set is classed as biochemical. Particulars: duplicate 10-point concentration curve, mean ± SD. As to the method:
as §1

Data set [1] deals with RIN-M5F cells. Description: Cell cycle distribution (PI staining, flow cytometry). Type of data set: cell-based, rat. As to the method:
(§2) Rat beta cells RIN-M5F (purchased from ATCC, Manassas, VA, USA, product code ATCC-CRL-11605, passage number below 40 for all experiments presented in this manuscript) were cultured in RPMI-1640 (cat# R5886, Sigma-Aldrich, Saint Louis, MO, USA) supplemented with 10% FBS (Biowest, Nauillé, France), 2 mM L-glutamine (Biowest), 1 mM sodium pyruvate (Merck, Darmstadt, Germany) and 1x Penicillin-Streptomycin (Sigma-Aldrich) according to manufacturer’s instructions. Cells were seeded 3 days before the start of each experiment to allow full attachment. In experiments analysing the effects of cytokines, cells were treated with 20 ng/ml human IL-1β and 20 ng/ml rat IFNγ (Peprotech, Rocky Hill, NJ, USA) for a given time as indicated. Mycoplasma was tested as negative using MycoAlert® Mycoplasma Kit (Lonza, Basel, Switzerland).
RIN-M5F cells were seeded in 6-well plates, 6 × 10^5 cells/well. […] After stimulation, the cells were washed with phosphate buffered saline (PBS) and trypsinated for 5 min at 37 °C, and fixed in ice-cold ethanol (70%) at 4 °C until analysis. The cells were stained by FxCycle™ PI/RNase Staining Solution kit (Invitrogen) according to manufacturer’s instructions and analysed by flow cytometry (CytoFLEX, Beckman Coulter). The percentages of cells in G1, S1 and G2/M was determined using the CytExpert software.

In data set [2] the test system is phospho-dyrk1a/b (Tyr321, Tyr273). The data set is described as follows: Western blot of phosphorylated DYRK1A/B. Type of data set: cell-based, rat. Particulars: 48 h, no cytokines. As to the method:
(§3) RIN-M5F cells were seeded in 6-well plates, 6 × 10^5 cells/well. […] After centrifugation (16.9 RCF, 15 min at 4 °C) the samples were directly diluted in NuPAGE™ LDS Sample Buffer (4X, Invitrogen) supplemented with NuPAGE™ Sample Reducing Agent (10X, Invitrogen), boiled at 95 °C for 5min and loaded on gel (NuPAGE™ 4–12%, Bis-Tris, Invitrogen). Protein transfer to PVDF membrane was performed by the iBlot™ dry blotting system (Invitrogen) according to manufacturer’s instructions. The membrane was blocked using SuperBlock™ Blocking Buffer (Thermo Fisher Scientific) and subsequently cut in half around 60 kDA, the top half was incubated with primary antibodies for phospho-dyrk1a/b (Tyr321, Tyr273) (1:500, Invitrogen, ref: PA5-64574), while the bottom half was incubated with phospho-p27^kip1 (Ser10) (1:200, Invitrogen, ref:34-6300) over night at 4 °C. After washing, the membrane was incubated with Alexa488-conjugated secondary antibody (1:5000, goat anti-rabbit, Invitrogen) for 2 h and imaged with a PharoxFX imager (Bio-Rad, Hercules, CA, USA). […] Protein quantification was performed with ImageJ (National Institutes of Health, Bethesda MD, USA), using the gel analysis tool to get the integrated pixel intensity for each band.
In general terms: A western blot detects proteins with antibodies after separation by electrophoresis.

The target of data set [3] is T3, DYRK1B (Homo sapiens, UniProt Q9Y463).
T3 construct: purchased ThermoFisher Scientific
Description: Lantha (TR-FRET) kinase binding assay. As to the method: Kinase binding activity was performed as described in[23]. Briefly, a 12-points dilution series of the compounds was prepared in DMSO and further diluted 1:33 in assay buffer A (50 mM HEPES (Sigma-Aldrich) pH 7.5, 10 mM MgCl2 (Sigma-Aldrich) 1 mM EGTA (Sigma-Aldrich) and 0.01% BRIJ-35 (ThermoFisher Scientific, Waltham, MA, USA). The GST tagged kinases, antibodies and tracer were purchased from ThermoFisher Scientific. DYRK1A and DYRK1B were each mixed with rabbit anti GST Europium tagged antibody in assay buffer A at concentrations of 15 nM kinase and 6 nM antibodies. Tracer 236 was diluted to 90 nM (DYRK1A) or 30 nM (DYRK1B) in assay buffer A. Finally, the kinase-antibody solution, compound solution and tracer solution were mixed together 1:1:1 (5µL each) in white, non-binding, round bottom 384 well microplates (Corning Inc, Kennebunk, ME, USA) mixed at 1000 rpm for 1 min and incubated in the dark at RT in humid atmosphere for 1 h. Fluorescence measurements were taken using a EnVision 2104 Multilabel reader (PerkinElmer, Shelton, CT, USA), excitation wavelength was set to 340 nm and emission was read at both 615 nm (8.5 nm bandwidth) and 665 nm (7.5 nm bandwidth) over 200ms with a 100ms delay between excitation and emission measurements. Emission ratio signals (EM) were calculated as the ratio between the 665 nm signal and the 615 nm signal. […]
A general note: TR-FRET usually uses a lanthanide donor and a delayed reading to cut background.

Another data set deals with phospho-p27^kip1 (Ser10). The data set is described as follows: Western blot of phosphorylated p27KIP. Type of data set: cell-based, rat. The following applies: 48 h, no cytokines. As to the method:
as §3

Data set [4] deals with RIN-M5F cells. The data set is described as follows: EdU incorporation (flow cytometry). Type of data set: cell-based, rat. Particulars: for Average increase of EdU + labelling: versus untreated. Here is the method:
as §2
RIN-M5F cells were seeded into 6 well plates, 6 × 10^5 cells per well. […] Subsequently, the cells were stained with 10 µM Click-iT EdU (Invitrogen, Waltham, MA, USA) for 2 h, and analysed by flow cytometry (CytoFLEX, Beckman Coulter, Brea, CA, USA) according to the manufacturer’s instructions. EdU incorporation was analysed using the CytExpert software.
For orientation: A flow cytometer gives signals particle by particle.

Data set [5] deals with RIN-M5F cells. The data set is described as follows: Cell viability (MTS, CellTiter 96 AQueous One) in cytokine-treated cells. Type of data set: cell-based, rat. As to the method: as §2
RIN-M5F cells were cultured in 96-well plates, 2 × 10^4 cells/well. […] Control wells with RPMI-1640 alone or supplemented with DMSO (Sigma-Aldrich, final concentration 10%) were used to estimate absorbance at 100% or 0% viability, respectively. […] The cells were thereafter incubated for an additional 72 h, and cell viability was measured by CellTiter 96®AQueous One Solution Assay (Promega, Madison, WI, USA) according to the manufacturer’s instructions. Absorbance at 490 nm was measured using a Spark® multimode microplate reader (Tecan, Männedorf, Switzerland). […]

Data set [6] deals with RIN-M5F cells. The data set is described as follows: Caspase 3/7 activity (Caspase-Glo). Type of data set: cell-based, rat. Here is the method:
as §2
RIN-M5F cells were cultured in 96-well plates, 2 × 10^4 cells/well. […] Caspase 3/7 activity was measured by Caspase-Glo (Promega) according to the manufacturer’s instructions. Each experiment was performed in triplicates.

The subject of a further data set is 48 cell lines. Details: method as in PMID 31647655. The following applies: cited from earlier work.
In data set [7] the target is T3, DYRK1B. Details: method as in Dirice et al. 2016. The following applies: reference activity value, ref Dirice et al. 2016; cited from earlier work.
Where [8] appears, read: 20 µM, cells treated with cytokines.

Where “and” joins values, the source holds several entries; their conditions need not be identical. Identical values can stand only once.

As a reminder, the IC50 is the midpoint of a concentration-inhibition curve. In general, Kd refers to the concentration at which binding is half-saturated.

T3 sequence (Q9Y463 whole entry): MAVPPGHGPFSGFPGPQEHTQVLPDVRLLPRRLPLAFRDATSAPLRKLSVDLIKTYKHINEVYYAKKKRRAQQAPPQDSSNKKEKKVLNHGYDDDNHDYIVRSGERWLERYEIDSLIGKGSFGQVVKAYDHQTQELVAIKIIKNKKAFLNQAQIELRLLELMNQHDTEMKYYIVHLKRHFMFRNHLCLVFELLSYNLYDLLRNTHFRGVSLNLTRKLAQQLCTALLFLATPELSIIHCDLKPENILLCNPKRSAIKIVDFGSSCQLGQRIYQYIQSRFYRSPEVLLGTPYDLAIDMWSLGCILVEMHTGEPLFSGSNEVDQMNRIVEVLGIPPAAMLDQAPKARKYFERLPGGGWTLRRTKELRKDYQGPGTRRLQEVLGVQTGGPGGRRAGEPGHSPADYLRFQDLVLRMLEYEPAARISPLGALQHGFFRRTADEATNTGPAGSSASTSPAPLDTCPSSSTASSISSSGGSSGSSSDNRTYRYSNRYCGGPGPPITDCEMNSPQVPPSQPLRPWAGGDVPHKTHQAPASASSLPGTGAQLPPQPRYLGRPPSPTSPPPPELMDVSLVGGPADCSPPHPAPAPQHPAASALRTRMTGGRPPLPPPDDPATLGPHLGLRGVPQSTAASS

Turning to `COc1cc2c(-c3cnc(-c4ccc[nH]4)o3)c[nH]c2cc1Br` [BfC, breitfussin C], the “EdU incorporation in HepG2 cells” value in the data set with HepG2 cells is reported as “decreased”. Also, the IC50 turned out to be 4400 ± 800 nM at DYRK3 and 1400 ± 500 nM at DYRK2. Besides, the “Change of cells in G0/G1 phase” value with RIN-M5F cells [1] (10 µM, without cytokines) is given as “significantly decreased”. In addition, the “Change of cells in S and G2/M phase” value with RIN-M5F cells [1] (10 µM, without cytokines) was “increased”; in the data set on RIN-M5F cells [1] (setting [8]), “increased”; in the data set on RIN-M5F cells [1] (20 µM, without cytokines) it was “increased”. The “Number of cells in G0/G1” value with RIN-M5F cells [1] (20 µM, 48 h, without cytokines, control 76.9 ± 0.6%) is 66.6 ± 1.3%. Also, the “Change of number of cells in G0/G1” value in the data set with RIN-M5F cells [1] (setting [8]) was “significantly decreased”. The results for the “Decrease of expression of p-DYRK1A/B compared to control” value in data set [2] (10 µM) and in data set [2] (20 µM) were “approximately 50%” and around 62%, respectively. Further, the Kd on DYRK1B [3] (TR-FRET, approximate because of compound autofluorescence) was ~9000 nM and 9000 nM. The “Decrease of expression of p-p27^KIP compared to control” value is reported as 23% in the data set with phospho-p27^kip1 (Ser10) (10 µM) and 42% in the data set on phospho-p27^kip1 (Ser10) (20 µM). The “EdU + labelling rate” value in the data set on RIN-M5F cells [4] (10 µM pretreatment, cytokine treated cells, cytokines alone 7.7 ± 0.8%) is 8.8 ± 0.8%; with RIN-M5F cells [4] (10 µM, without cytokines, untreated 15.2 ± […]), 17.1 ± 0.9%; in the data set on RIN-M5F cells [4] (20 µM pretreatment, cytokine treated cells, cytokines alone 7.7 ± 0.8%), 11.0 ± 1.1%; with RIN-M5F cells [4] (20 µM, without cytokines, untreated 15.2 ± […]), 18.4 ± 1.5%. Also, the “Average increase of EdU + labelling” value is given as 12.5% in the data set with RIN-M5F cells [4] (10 µM, without cytokines) and 21.1% in the data set with RIN-M5F cells [4] (20 µM, without cytokines). For the same compound, the “Protective effect against cytokine-induced cell death at higher concentrations” value with RIN-M5F cells [5] (concentrations above 10–20 µM (up to 40 µM), with cytokines) is recorded as “lost”. In addition, in the data set with RIN-M5F cells [5] (dose-response 1.25-40 µM with cytokines), the “Concentration range of effective protection against cytokine-induced cell death” value lay in the range of 10 to 20 µM. For the same compound, the “Caspase 3/7 activity compared to control” value stood at 210 ± 15% with RIN-M5F cells [6] (10 µM pretreatment 24 h before cytokines, cytokines alone 199%); 127 ± 2% in the data set on RIN-M5F cells [6] (10 µM, 48 h, without cytokines); 241 ± 20% in the data set on RIN-M5F cells [6] (20 µM pretreatment 24 h before cytokines, cytokines alone 199%); 186 ± 19% in the data set on RIN-M5F cells [6] (20 µM, 48 h, without cytokines). Besides, the “Concentration at which cytotoxic to 48 cell lines” value in the data set with 48 cell lines is on record as at most 10 µM.

For `Nc1ncnc2c1c(I)cn2[C@@H]1O[C@H](CO)[C@@H](O)[C@H]1O` [5IT, reference compound], binding at DYRK1B [3] (lanthaScreen, 95% confidence interval in bracket) was put at a Kd of 2.4 nM. Moreover, at DYRK1B [7], the half-inhibitory concentration (IC50) is 10 nM.

(Values after PMC11706957 (Scientific Reports, 2025).)
